Laboratory results taken from US4518611A, “2-Furylbutyrolactone modulation of the immune system in mammals” (priority 1983, dated 1985).
Several values for one entry are separate records, joined by “and”; a condition that tells them apart may be missing. Equal entries are not always repeated. Where two headings read alike, the source gives them in different places.

Columns and labels:
CD rats = details: 14 days
Experimental: (§1) Single oral dose LD50 in CD-1 mice and CD rats, obtained from Charles River U.K. Ltd., for Cpd. 1 is determined. […] Cpd. 1, dissolved in buffer, or just buffer is administered orally and the mice and rats are observed for 14 days after dosing. After 14 days, the animals are sacrificed and necropsy is performed to check for gross evidence of toxicity.

CD-1 mice = details: 14 days
Experimental: as §1

L5178Y tumor cells = details: for No. Survivors: 100 mg/kg
Experimental: Ten days later the resultant tumor nodule, about 1 cm in size, is surgically excised. If the excision was successful, no subcutaneous tumors develop at the site of implantation. […] These mice are considered to be in the tumor dormant state.
The effect of Cpd. 1 on the establishment of the L5178Y tumor dormant state is studied by treating forty DBA/2 mice with Cpd. 1 after the mice have undergone the TDS inducing procedure. […] 1 at 100 mg/kg and the remaining twenty mice receive buffer only. A partial peritoneal lavage is performed twenty-five days after the last dose of Cpd. 1 and the peritoneal exudate fluid is plated out for determination of tumor cell numbers (tumor cell quantitative assay). Survival time is recorded out to 90 days after challenge with the viable L5178Y tumor cells. The percent mortality is calculated for each group.
The effect of Cpd. 1 on the establishment of the L5178Y tumor dormant state was studied by treating forty DBA/2 mice with Cpd. 1 after the mice had undergone the TDS inducing procedure. Two days after the mice were challenged with i.p. administration of 50,000 viable L5178Y tumor cells, twenty of these mice received seven consecutive days of i.p. treatment with Cpd. 1 at 100 mg/kg and the remaining twenty mice received buffer only. A partial peritoneal lavage was performed twenty-five days after the last dose of Cpd. 1 and the peritoneal exudate fluid was plated out for determination of tumor cell numbers (tumor cell quantitative assay). Survival time was recorded out to 114 days after challenge with the viable L5178Y tumor cells. The percent mortality was calculated for each group.

BSA antibody response = test system: BSA antibody response
Source text: The effect of the compounds of this invention on the immune response to specific antigens involves immunization of mice with specific antigens such as bovine serum albumin (BSA) or keyhole limpet hemocyanin (KLH). Following immunization, it is possible to assess the cell-mediated or humoral (antibody) immune response to these antigens by various methods:
(2) Antibody response to soluble antigens such as BSA or KLH can be quantitated using a micro-ELISA solid phase heterogeneous immunoassay. The assay can be designed to quantitate class specific immunoglobulins (i.e., IgG or IgM).
The cut-off for the titer was the highest dilution of mouse serum yielding on O.D.≤0.1 when read on the MR-600 Dynatech micro-ELISA reader.
Mice of the C57BL/6 strain are given i.p. injections of either 50, 100, 200 or 400 mg/kg of Cpd. 1 or buffer for twelve days (days 1-12). An antigen, bovine serum albumin (BSA), is administered intraperitoneally with Freund's Complete Adjuvant (FCA) on days 1, 7 and 14. Blood samples are taken for assay of the antibody response on days 0, 5, 13, and 19.

[1] = No. tumor cells >100,000, 100 mg/kg i.p., 7 days

How did the “deaths or signs of toxicity” value (CD rats; 5 g/kg oral) turn out when `Cc1ccc(C2(O)C(=O)OC3C(O)COC32O)o1.Cc1ccc(C2(O)C(=O)OC3C(O)COC32O)o1.O=C1CCC(=O)O1` (stereo not drawn) [Cpd. 1, 2-furylbutyrolactone:succinic anhydride] was run?
The value was “No deaths or signs of toxicity”.

And the LD50 (CD rats; single oral dose)?
The LD50 was over 5 g/kg.

What about the “deaths or signs of toxicity” value (CD-1 mice; 5 g/kg oral) of the same compound?
The value was “No deaths or signs of toxicity”.

And the LD50 (CD-1 mice; single oral dose)?
The LD50 was over 5 g/kg.

What about the “numbers of tumor cells recovered (in words)” value (L5178Y tumor cells; 100 mg/kg i.p., 7 days) of the same compound?
Its value is “significant reduction in the numbers of tumor cells recovered”.

And the “survival (in words)” value (L5178Y tumor cells; 100 mg/kg i.p., 7 days)?
Its value is “significantly greater survival”.

What about the “No. Survivors” value (L5178Y tumor cells; 90 days post-challenge) of the same compound?
Its value is 10.

What about the “No. Survivors” value (L5178Y tumor cells; 114 days post-challenge) of the same compound?
Its value is 19.

What about the “Frequency (mice), treated group” value (L5178Y tumor cells; No. tumor cells 1,000 to 100,000, 100 mg/kg i.p., 7 days) of the same compound?
The value was 7 and 4.

What about the “% of Total, treated group” value (L5178Y tumor cells; [1]) of the same compound?
The value was 6% and 4.3%.

And the “Frequency (mice), treated group” value (L5178Y tumor cells; [1])?
Its value is 1.

And the “Micro-ELISA Titer” value (BSA antibody response; 50 mg/kg i.p., Day 5)?
The value was “N/R”.

And the “Micro-ELISA Titer” value (BSA antibody response; 50 mg/kg i.p., Prebleed)?
The value was “N/R”.

What about the “antibody titer versus control (in words)” value (BSA antibody response; 50 mg/kg, day 19) of the same compound?
Its value is “A slight increase of antibody titer over the control”.

And the “Micro-ELISA Titer” value (BSA antibody response; 100 mg/kg i.p., Day 5)?
Its value is “N/R”.

What about the “Micro-ELISA Titer” value (BSA antibody response; 100 mg/kg i.p., Prebleed) of the same compound?
Its value is “N/R”.

What about the “Micro-ELISA Titer” value (BSA antibody response; 200 mg/kg i.p., Day 5) of the same compound?
Its value is “N/R”.

What about the “Micro-ELISA Titer” value (BSA antibody response; 200 mg/kg i.p., Prebleed) of the same compound?
The value was “N/R”.

And the “Micro-ELISA Titer” value (BSA antibody response; 400 mg/kg i.p., Day 5)?
Its value is “N/R”.

And the “Micro-ELISA Titer” value (BSA antibody response; 400 mg/kg i.p., Prebleed)?
Its value is “N/R”.

What about the “antibody response versus control (in words)” value (BSA antibody response; 400 mg/kg, day 19) of the same compound?
Its value is “the antibody responses to BSA are equal at the 0 mg/kg and 400 mg/kg dose”.

What about the “stimulation of antibody response (in words)” value (BSA antibody response; 50 and 100 mg/kg, day 13) of the same compound?
Its value is “only a slight amount of stimulation”.

What about the “increase over controls of antibody titer (fold)” value (BSA antibody response; 100 and 200 mg/kg, day 19) of the same compound?
Its value is 16 fold.

And the “stimulation of antibody response (fold)” value (BSA antibody response; 200 and 400 mg/kg, day 13)?
The value was “four-fold”.
